From patent US20080262073A1, “Pyrrolic Derivatives with Histone Deacetylase Inhibitory Activity” (priority 2005, published 2008)

Row | melting point [°C] | Structure (SMILES)
1 | 126 to 127 | COc1ccc(-c2[nH]c(C(=O)NCCCCCC(=O)NO)c(-c3ccccc3)c2[N+](=O)[O-])cc1 [Example 7]
2 | 228 to 229 | O=C(O)CCCCCNC(=O)c1[nH]c(-c2ccccc2)cc1-c1ccccc1 [Example 4, 6-(3,5-diphenyl-1H-pyrrole-2-carboxamide)hexanoic acid]
3 | 157 to 158 | COc1ccc(-c2cc(-c3ccccc3)c(C(=O)NCCCCCC(=O)NO)[nH]2)cc1 [Example 6]
4 | 153 to 154 | O=C(O)CCCCCNC(=O)c1[nH]c(-c2ccccc2)c([N+](=O)[O-])c1-c1ccccc1 [Example 5, 6-(4-nitro-3,5-diphenyl-1H-pyrrole-2-carboxamide)hexanoic acid]
5 | 142 | COc1ccc(-c2cc(-c3ccccc3)[nH]c2C(=O)NCCCCCC(=O)NO)cc1 [Example 8]
6 | 185 to 187 | CNNC(=O)NCCCCNC(=O)c1[nH]c(-c2ccc(OC)cc2)c([N+](=O)[O-])c1-c1cccs1 [Example 11, 1-(4-(5-(4-methoxyphenyl)-4-nitro-3-(thiophene-2-yl)-1H-pyrrole-2-carboxamide)butyl)-3-(2-methylamine)urea]
